{"source": "paper PMC6515058", "about": "(International Journal of Molecular Sciences, 2019)", "key": {"chicken P-gp [1]": {"system": "chicken P-gp", "assay": "Bidirectional transport of veterinary drugs across MDCK-chAbcb1 cell monolayer with berberine", "settings": "for efflux ratio at 20 μM: chicken", "protocol": "(§1) The MDCK-chAbcb1 cell line stably expressing chicken P-gp was previously established in our laboratory. Briefly, the full-length chicken cDNA was first cloned into the pcDNA3.1 vector and then transfected into MDCK cells using Lipofectamine 2000. Single cells stably expressing chicken P-gp were collected using the limited dilution method in medium containing hygromycin B (100 μg/mL) to obtain the MDCK-chAbcb1 cell line. The cell line was cultured in Dulbecco’s modified Eagle’s medium containing 10% fetal bovine serum, antibiotics (100 IU/mL penicillin and 80 IU/mL streptomycin), and 50 μg/mL hygromycin B and incubated at 37 °C in humidified air with 5% CO2.\nThen, the samples collected from the receiving sides were subjected to an HPLC analysis. Of note, the transport periods for all of the drugs were determined by a preliminary experiment to avoid the saturation of P-gp.\nThe apparent permeability coefficients (Papp) and the efflux ratio (ER) were calculated as follows:(3) Papp=dQ/dt×1/(A×Co) (4) ER=Papp(B→A)/Papp(A→B)\n(§2) In the third equation, A is the membrane surface area of the filter, C0 is the initial concentration of the test drug, dQ is the amount of transported drug, and dt is the time elapsed. In the fourth equation, Papp B→A and Papp A→B are the apparent permeability coefficients for the basolateral-to-apical and apical-to-basolateral directions, respectively."}, "chicken intestinal P-gp": {"system": "chicken intestinal P-gp", "assay": "In situ single-pass intestinal perfusion of Rho123 in berberine-treated broilers", "type": "in vivo", "protocol": "(§3) Arbor Acres broilers (one day old) were purchased from the Liuhe Hatchery (Nanjing, Jiangsu, China). The broilers were provided a basal diet and water ad libitum and managed under the recommended humidity and temperature for 6 weeks. Then, 18 healthy broilers with similar body weight (b.w.) were randomly divided into three groups (6 broilers/group). Group I was administered phosphate-buffered saline for 24 h (control).\nThe broilers were divided into three experimental groups and drugs were administered as described above. Broilers were fasted for 12 h with free access to water before the perfusion experiment. Then, the animals were anesthetized with urethane intraperitoneally (0.5 mL/kg b.w.) and an incision was made through the abdominal cavity. A 10-cm intestinal segment was carefully exposed to air for intestinal perfusion. Two polyethylene cannulas were inserted through small slits at the proximal and distal ends (inlet and outlet). Initially, the intestinal segment was gently flushed with Krebs-Ringer buffer for about 30 min until a clear effluent flowed out. Then, Rho123 (1.5 ng/mL) solution was introduced into the loop at a constant flow rate of 0.2 mL/min. The intestinal fluid was collected in bottles at the outlet of the intestine at intervals of 10 min for up to 100 min. The lengths and internal radii of the intestinal segments were measured after all of the chickens were killed by cervical dislocation.\nAll samples were weighed and centrifuged for 10 min at 4500 rpm. The supernatants were filtered using a 0.22-μm filter (Millipore, Burlington, MA, USA) and samples were collected for analysis by high-performance liquid chromatography (HPLC)."}, "chicken P-gp [2]": {"system": "chicken P-gp", "assay": "Bidirectional transport of Rho123 across MDCK-chAbcb1 cell monolayer (P-gp inhibition)", "type": "cell-based", "settings": "for Papp A→B at 80 min, 4 mM: read-out: Papp AP→BL of Rho123", "protocol": "as §1\nThe samples were collected at 20, 40, 60, and 80 min from the receiving sides and analyzed by HPLC.\nas §2\nThe inhibition rate was calculated using the following equation:(5) Inhibition rate=ERcontrol−ERtreatment/ERcontrol"}, "chicken P-gp [3]": {"system": "chicken P-gp", "assay": "Bidirectional transport of berberine across MDCK-chAbcb1 cell monolayer", "type": "in vitro ADME", "settings": "for efflux ratio at 4 h, 100 μM: chicken"}, "[4]": {"system": "chicken xenobiotic receptor (CXR) mRNA", "assay": "CXR mRNA expression in the ileum of broilers by real-time RT-PCR after oral berberine", "type": "in vivo", "settings": "berberine 40 and 80 mg/kg, 24 h, vs control, p < 0.01", "protocol": "Arbor Acres broilers (one day old) were purchased from the Liuhe Hatchery (Nanjing, Jiangsu, China). The broilers were provided a basal diet and water ad libitum and managed under the recommended humidity and temperature for 6 weeks. Then, 18 healthy broilers with similar body weight (b.w.) were randomly divided into three groups (6 broilers/group). Group I was administered phosphate-buffered saline for 24 h (control). […] Chicken treatment procedures were approved by the Science and Technology Agency of Jiangsu Province (approval no. 2017-0007, approval date: 15th, February, 2017) and performed in accordance with the guidelines of the Science and Technology Agency of Jiangsu Province and Nanjing Agricultural University. Broilers were divided into three experimental groups and drugs were administered as described above. At the end of experiments, animals were killed by decapitation. The ileum samples were collected immediately and stored at −80 °C for further tests. […] RNAs were quantified using a photometer (Eppendorf, Hamburg, Germany) at 260/280 nm. […] Chicken Abcb1 and chicken xenobiotic receptor (CXR) mRNAs were quantified using SYBR Green Realtime PCR Master Mix (Toyobo, Japan) on a real-time PCR detection system (Bio-Rad Laboratories, Hercules, CA, USA). […] Relative levels of Abcb1 and CXR were analyzed using the 2^−ΔΔCt method."}, "[5]": {"assay": "Bidirectional transport of berberine across MDCK parental cell monolayer", "type": "in vitro ADME", "settings": "dog"}, "Abcb1 mRNA": {"system": "Abcb1 mRNA", "assay": "Abcb1 mRNA expression in the ileum of broilers by real-time RT-PCR after oral berberine", "type": "in vivo", "settings": "berberine 40 and 80 mg/kg, 24 h, vs control, p < 0.01", "protocol": "as §3\nGAPDH was used as an internal control."}, "[6]": {"set-up": "method as in data published in a Chinese journal, Figure S3", "settings": "broilers, berberine co-administration; ref data published in a Chinese journal, Figure S3; cited from earlier work"}, "[7]": {"settings": "chicken, control of 8 h series, no berberine"}}, "note": "Read-outs that look alike come from different tables or passages of the source.", "data": [{"molecule": "CCN1CCN(c2cc3c(cc2F)c(=O)c(C(=O)O)cn3C2CC2)CC1", "note": "[enrofloxacin]", "values": [{"measurement": "efflux ratio at 20 μM", "setting": "chicken P-gp [1]", "value": 2.01}]}, {"molecule": "COC(=O)c1ccccc1-c1c2ccc(=N)cc-2oc2cc(N)ccc12", "note": "[Rho123, rhodamine 123]", "values": [{"measurement": "Papp at 100 min, 1.5 ng/mL", "setting": "chicken intestinal P-gp; Arbor Acres, chicken, other: in situ single-pass intestinal perfusion", "value": "123 ± 42", "unit": "×10⁻⁶ cm/s"}, {"measurement": "Ka of Rho123", "setting": "chicken intestinal P-gp; control (no berberine), in situ perfusion, n = 6", "value": "1.12 ± 0.28", "unit": "min⁻¹"}, {"measurement": "efflux ratio at 2 h, 4 mM", "setting": "chicken P-gp [2]; chicken, control of 2 h series, no berberine, read-out: Efflux ratio of Rho123", "value": "7.28 ± 0.98"}, {"measurement": "Papp A→B at 80 min, 4 mM", "setting": "chicken P-gp [2]; chicken, control of 2 h series, no berberine", "value": "8.86 ± 1.38", "unit": "×10⁻⁶ cm/s"}, {"measurement": "Papp B→A at 2 h, 4 mM", "setting": "chicken P-gp [2]; chicken, control of 2 h series, no berberine, read-out: Papp BL→AP of Rho123", "value": "62.9 ± 7.69", "unit": "×10⁻⁶ cm/s"}, {"measurement": "efflux ratio at 8 h, 4 mM", "setting": "chicken P-gp [2]; [7]", "value": "7.24 ± 0.49"}, {"measurement": "Papp A→B at 80 min, 4 mM", "setting": "chicken P-gp [2]; [7]", "value": "8.62 ± 1.24", "unit": "×10⁻⁶ cm/s"}, {"measurement": "Papp B→A at 8 h, 4 mM", "setting": "chicken P-gp [2]; chicken, control of 8 h series, no berberine, read-out: Papp BL→AP of Rho123", "value": "60.1 ± 5.13", "unit": "×10⁻⁶ cm/s"}, {"measurement": "efflux ratio at 2 h, 4 mM", "setting": "chicken P-gp [2]; chicken, control of verapamil series, verapamil 0 µM, read-out: Efflux Ratio of rhodamine 123", "value": "6.24 ± 0.7"}, {"measurement": "Papp A→B at 2 h, 4 mM", "setting": "chicken P-gp [2]; chicken, control of verapamil series, verapamil 0 µM, read-out: Papp AP→BL of rhodamine 123", "value": "8.04 ± 0.76", "unit": "×10⁻⁶ cm/s"}, {"measurement": "Papp B→A at 2 h, 4 mM", "setting": "chicken P-gp [2]; chicken, control of verapamil series, verapamil 0 µM, read-out: Papp BL→AP of rhodamine 123", "value": "54.4 ± 4.34", "unit": "×10⁻⁶ cm/s"}]}, {"molecule": "Nc1ccc(S(=O)(=O)Nc2ncccn2)cc1", "note": "[sulfadiazine]", "values": [{"measurement": "efflux ratio at 20 μM", "setting": "chicken P-gp [1]", "value": 2.77}]}, {"molecule": "CC[C@H]1OC(=O)C[C@@H](O)[C@H](C)[C@@H](O[C@@H]2O[C@H](C)[C@@H](O)[C@H](N(C)C)[C@H]2O)[C@@H](CCN2C[C@H](C)C[C@H](C)C2)C[C@@H](C)C(=O)/C=C/C(C)=C/[C@@H]1CO[C@@H]1O[C@H](C)[C@@H](O)[C@@H](OC)[C@H]1OC", "note": "[tilmicosin]", "values": [{"measurement": "efflux ratio at 20 μM", "setting": "chicken P-gp [1]", "value": 4.26}]}, {"molecule": "COc1ccc2cc3[n+](cc2c1OC)CCc1cc2c(cc1-3)OCO2", "note": "[berberine]", "values": [{"measurement": "Transport ratio (r) of berberine", "setting": "chicken P-gp [3]; MDCK-chAbcb1 cells, without verapamil, berberine 100 μM, 4 h", "value": 4.2}, {"measurement": "efflux ratio at 4 h, 100 μM", "setting": "chicken P-gp [3]", "value": 4.2}, {"measurement": "efflux ratio at 4 h, 100 μM", "setting": "chicken P-gp [3]; with verapamil 100 μM", "value": 1.13}, {"measurement": "CXR mRNA level in the ileum", "setting": "[4]", "value": "significantly down-regulated"}, {"measurement": "efflux ratio at 4 h, 100 μM", "setting": "[5]", "value": 1.24}, {"measurement": "efflux ratio at 4 h, 100 μM", "setting": "[5]; with verapamil 100 μM", "value": 1.21}, {"measurement": "Rho123 concentrations in the perfusion fluid", "setting": "chicken intestinal P-gp; berberine 40 and 80 mg/kg, 24 h, vs control, p < 0.05", "value": "obvious decrease"}, {"measurement": "Abcb1 mRNA level in the ileum", "setting": "Abcb1 mRNA", "value": "significantly down-regulated"}, {"measurement": "ER of sulfadiazine", "setting": "chicken P-gp [1]; berberine 20 μM, 2 h pre-incubation, sulfadiazine 20 μM", "value": "did not obviously alter the ER"}, {"measurement": "Bioavailability of orally administered enrofloxacin", "setting": "[6]", "value": "increases the bioavailability"}, {"measurement": "Inhibition rate (of Rho123 efflux ratio)", "setting": "chicken P-gp [2]; berberine 5 μM, 2 h", "value": 41.48, "unit": "%"}, {"measurement": "Inhibition rate (of Rho123 efflux ratio)", "setting": "chicken P-gp [2]; berberine 5 μM, 8 h", "value": 39.64, "unit": "%"}, {"measurement": "Inhibition rate (of Rho123 efflux ratio)", "setting": "chicken P-gp [2]; berberine 20 μM, 2 h", "value": 53.3, "unit": "%"}, {"measurement": "Inhibition rate (of Rho123 efflux ratio)", "setting": "chicken P-gp [2]; berberine 20 μM, 2 h, listed as Berberine", "value": 53.30, "unit": "%"}, {"measurement": "Inhibition rate (of Rho123 efflux ratio)", "setting": "chicken P-gp [2]; berberine 20 μM, 8 h", "value": 62.57, "unit": "%"}, {"measurement": "Inhibition rate (of Rho123 efflux ratio)", "setting": "chicken P-gp [2]; berberine 40 μM, 2 h", "value": 73.6, "unit": "%"}, {"measurement": "Inhibition rate (of Rho123 efflux ratio)", "setting": "chicken P-gp [2]; berberine 40 μM, 2 h, listed as Berberine", "value": 73.63, "unit": "%"}, {"measurement": "Inhibition rate (of Rho123 efflux ratio)", "setting": "chicken P-gp [2]; berberine 40 μM, 8 h", "value": 68.23, "unit": "%"}]}]}
